For one data set, the target named is Aurora A (Homo sapiens, UniProt O14965). The data set is described as follows: Biochemical kinase profiling Aurora A.
The test system of another data set is colo-205 cells. The data set is described as follows: DNA content / G1 arrest assay, colo-205 (Acumen). In kind it is cell-based, human. As to conditions: Colo-205 cells. As to the method:
(§1) Details for the cellular assays are provided in the supplemental materials. Briefly, image-based assays (Acumen Explorer, TPP LabTech) were used for compound screening. […] After treatment, the cells were washed, fixed and stained with antibodies to detect phosphoproteins and Propidium Iodide to monitor DNA content. The plates were then analyzed on an Acumen Explorer (TTP Labtech). The IC50 and EC50 values are determined by curve fitting to a 4-parameter logistic for each output using ACTIVITY BASE™ software.
(§2) Fixed cells are blocked with 1% bovine serum albumin (BSA, Amersham cat # RPN412V) for 30 minutes. […] Image analysis is based on cellular fluorescent signals for identifying cells in different subpopulations. Assay outputs are a percentage of each identified subpopulations; percent phosphoRB positive, percent 2 N, and percent 4 N. The IC50 and EC50 values are determined by curve fitting to a 4-parameter logistic for each output using ACTIVITY BASE™.

The conditions of data set [1]: phase 1 study in advanced cancer patients ref 38, 39; cited from earlier work.
Another data set concerns the target cRaf (Homo sapiens, UniProt P04049). Description: Biochemical kinase profiling cRaf.
For a further data set, the target named is ERK1 (Homo sapiens, UniProt P27361). The data set is described as follows: Biochemical kinase profiling ERK1.
The test system of data set [2] is p-Rb, TopoIIα, pHH3 in colo-205 xenografts. The note with it: 24 h after oral dosing.
The subject of another data set is pERK A375. The data set is described as follows: pERK inhibition, A375. The class given is cell-based. As to conditions: Homo sapiens, A-375; read-out: pERK inh. A375 IC50.
A further data set concerns pRb (pSer780) colo-205. The data set is described as follows: Cellular assay for inhibition of p-Rb (Ser780), colo-205 (Acumen). The class given is cell-based. As to conditions: Homo sapiens, Fig. 2a, as given in discussion. As to the method:
as §1, §2

In data set [3] the test system is Rb-deficient MDA-MB-468 breast cancer cells. Description: Flow cytometry cell cycle distribution, MDA-MB-468. As to conditions: MDA-MB-468, concentrations up to 2,500 nmol/L. The class given is cell-based, human. Background: Flow cytometry measures light scatter and fluorescence of single cells or particles in a stream.
Procedure: Flow cytometry was used to determine cell cycle distribution in cell lines. Cells were cultured in growth media under subconfluent conditions and treated with indicated concentrations of compound solubilized in DMSO for 24 hours at 37°C/5% CO2. After treatment, cells were collected, washed once with 4° C PBS, and fixed with 70% ethanol/30% water at -20 °C for 30 minutes. Cells were then collected by centrifugation, washed once with PBS, and stained for 30 minutes at room temperature by the addition of 1 mL of propidium iodide/Triton X-100 staining solution (20µg/mL of propidium iodide, 200µg/mL DNase-free RNase A, 0.1%(v/v) Triton x-100). Cell cycle analysis was performed using a Cytomics™ FC500 (Coulter); data were analyzed using ModFit v3.1 software (Verity).
Another data set addresses bRaf (Homo sapiens, UniProt P15056). The data set is described as follows: Biochemical kinase profiling bRaf.
The conditions of data set [4]: PK/PD model, colo-205 bearing mice, continuous dosing ref 37; cited from earlier work.
A further data set deals with T1, DRAK1 (Homo sapiens, UniProt Q9UEE5).
T1 construct: purchased Millipore/UBI
The data set is described as follows: Millipore (UBI) kinase panel DRAK1. In kind it is biochemical. The note with it: generated at millipore (UBI) kinase panel.

Setting [5] is: colo-205 xenograft dose response.

Entries after “also recorded” stand apart in the source; their conditions may differ.

Sequence of Aurora A (O14965 whole entry): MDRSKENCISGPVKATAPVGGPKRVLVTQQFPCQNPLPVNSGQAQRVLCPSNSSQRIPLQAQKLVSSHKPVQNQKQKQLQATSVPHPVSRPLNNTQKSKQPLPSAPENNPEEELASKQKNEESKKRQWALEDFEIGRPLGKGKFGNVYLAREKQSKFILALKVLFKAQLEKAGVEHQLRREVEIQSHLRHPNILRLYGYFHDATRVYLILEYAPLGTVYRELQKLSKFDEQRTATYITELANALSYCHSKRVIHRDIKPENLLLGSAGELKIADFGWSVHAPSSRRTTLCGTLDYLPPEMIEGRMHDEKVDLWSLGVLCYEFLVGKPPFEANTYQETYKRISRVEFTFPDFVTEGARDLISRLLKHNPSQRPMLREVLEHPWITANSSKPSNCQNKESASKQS
Sequence of cRaf (P04049 whole entry): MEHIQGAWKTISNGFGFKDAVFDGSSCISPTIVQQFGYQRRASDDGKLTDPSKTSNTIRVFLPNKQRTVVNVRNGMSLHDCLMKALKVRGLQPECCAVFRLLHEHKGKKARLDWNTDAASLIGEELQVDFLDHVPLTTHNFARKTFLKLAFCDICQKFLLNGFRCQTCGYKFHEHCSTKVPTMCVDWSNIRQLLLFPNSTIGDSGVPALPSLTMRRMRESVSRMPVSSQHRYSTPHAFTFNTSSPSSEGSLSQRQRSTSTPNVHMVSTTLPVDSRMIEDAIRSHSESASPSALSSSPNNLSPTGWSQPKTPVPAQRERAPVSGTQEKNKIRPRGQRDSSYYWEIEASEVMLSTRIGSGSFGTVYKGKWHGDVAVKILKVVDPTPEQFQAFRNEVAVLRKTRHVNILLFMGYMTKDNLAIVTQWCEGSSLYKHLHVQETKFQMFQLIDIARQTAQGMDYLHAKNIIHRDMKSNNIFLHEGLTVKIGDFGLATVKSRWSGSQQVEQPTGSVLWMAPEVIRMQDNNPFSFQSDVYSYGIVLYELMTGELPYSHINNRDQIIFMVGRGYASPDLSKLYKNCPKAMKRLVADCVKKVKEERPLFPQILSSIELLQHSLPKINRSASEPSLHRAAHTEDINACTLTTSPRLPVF
Sequence of bRaf (P15056 whole entry): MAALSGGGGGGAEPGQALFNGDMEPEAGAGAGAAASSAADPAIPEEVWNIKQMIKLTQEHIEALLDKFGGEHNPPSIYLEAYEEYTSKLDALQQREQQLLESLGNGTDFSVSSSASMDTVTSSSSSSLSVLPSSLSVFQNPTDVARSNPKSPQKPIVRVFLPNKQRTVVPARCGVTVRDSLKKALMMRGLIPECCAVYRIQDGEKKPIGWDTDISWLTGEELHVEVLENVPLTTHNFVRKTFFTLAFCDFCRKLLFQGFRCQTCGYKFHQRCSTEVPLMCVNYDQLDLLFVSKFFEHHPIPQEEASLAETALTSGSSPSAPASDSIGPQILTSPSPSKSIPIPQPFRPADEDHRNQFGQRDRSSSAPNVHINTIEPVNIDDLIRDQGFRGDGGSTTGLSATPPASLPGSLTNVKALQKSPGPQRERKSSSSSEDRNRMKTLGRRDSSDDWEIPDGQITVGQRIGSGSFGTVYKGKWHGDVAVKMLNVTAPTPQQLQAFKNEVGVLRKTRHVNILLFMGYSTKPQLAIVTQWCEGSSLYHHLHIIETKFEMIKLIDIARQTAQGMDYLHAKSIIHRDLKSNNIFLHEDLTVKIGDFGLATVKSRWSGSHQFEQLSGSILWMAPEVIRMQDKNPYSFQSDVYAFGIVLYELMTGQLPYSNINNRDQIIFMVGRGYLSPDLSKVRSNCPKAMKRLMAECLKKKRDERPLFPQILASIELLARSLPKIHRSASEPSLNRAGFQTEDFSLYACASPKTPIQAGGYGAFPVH
Sequence of ERK1 (P27361 whole entry): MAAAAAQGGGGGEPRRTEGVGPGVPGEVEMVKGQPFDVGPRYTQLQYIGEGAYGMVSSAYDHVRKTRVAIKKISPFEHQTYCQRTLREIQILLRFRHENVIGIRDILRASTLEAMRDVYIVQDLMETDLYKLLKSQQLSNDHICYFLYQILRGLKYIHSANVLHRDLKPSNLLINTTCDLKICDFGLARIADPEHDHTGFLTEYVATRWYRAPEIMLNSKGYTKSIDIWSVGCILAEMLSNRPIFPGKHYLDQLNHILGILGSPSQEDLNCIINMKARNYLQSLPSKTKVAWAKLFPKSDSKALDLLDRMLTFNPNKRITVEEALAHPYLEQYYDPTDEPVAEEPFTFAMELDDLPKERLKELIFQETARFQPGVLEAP
T1 sequence (Q9UEE5 whole entry): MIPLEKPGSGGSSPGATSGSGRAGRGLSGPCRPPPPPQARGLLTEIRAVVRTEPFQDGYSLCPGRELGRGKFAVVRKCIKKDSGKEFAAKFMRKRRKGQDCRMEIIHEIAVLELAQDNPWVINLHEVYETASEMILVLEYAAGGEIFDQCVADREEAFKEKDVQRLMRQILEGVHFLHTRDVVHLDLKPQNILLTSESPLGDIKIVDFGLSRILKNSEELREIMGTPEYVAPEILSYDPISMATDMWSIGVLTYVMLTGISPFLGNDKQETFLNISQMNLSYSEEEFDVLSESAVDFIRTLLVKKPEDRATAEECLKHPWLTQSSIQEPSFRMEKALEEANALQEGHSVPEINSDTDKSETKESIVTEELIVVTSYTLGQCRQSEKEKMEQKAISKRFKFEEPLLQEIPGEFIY

Consider `CCN1CCN(Cc2ccc(Nc3ncc(F)c(-c4cc(F)c5nc(C)n(C(C)C)c5c4)n3)nc2)CC1` [LY2835219, [5-(4-Ethyl-piperazin-1-ylmethyl)-pyridin-2-yl]-[5-fluoro-4-(7-fluoro-3-isopropyl-2-methyl-3H-benzoimidazol-5-yl)-pyrimidin-2-yl]-amine], for which the IC50 against Aurora A is greater than 20 µM; at cRaf it was greater than 20 µM; against ERK1, greater than 20 µM; in the data set on pERK A375 it was greater than 20 µM; in the data set with pRb (pSer780) colo-205, roughly 0.1 µM; against bRaf it was 6.33 µM. In addition, the IC50 against DRAK1 is 0.659 µM. Also, the “activity against Aurora A” value at Aurora A is “Complete lack of activity”. This molecule also showed a 4N cell population with colo-205 cells (2.2 µM) of 16%. This molecule also registered a S cell population in the data set with colo-205 cells (2.2 µM) of 0%. In the data set on colo-205 cells (6.6 µM), this molecule yielded a 2N cell population of 75%. Further, the “mean maximum steady state plasma concentration” value in data set [1] was 562 nM. Further, the “TED70 for in vivo inhibition of TopoII” value in data set [2] (setting [5]) stood at 14 mg/kg. Besides, the “TED70 for in vivo inhibition of pRb” value in data set [2] (setting [5]) came to 14 mg/kg. Moreover, the “doses at which p-Rb, TopoIIα and pHH3 were all significantly inhibited” value in [2] (colo-205 xenografts) is no less than 12.5 mg/kg. For the same molecule, the “G1 arrest in Rb-deficient cells” value in [3] is on record as “no such effect”. Besides, the “minimum steady state trough plasma concentration required for robust efficacy” value in data set [4] is “approximately 200 ng/mL; also recorded: approximately 400 nM”.

By IC50 is commonly meant the midpoint of a concentration-inhibition curve.

The record behind these values is publication PMC4169866 (Investigational New Drugs, 2014).
